Test results: a melting point compilation (Tetko et al.; mined from patent text by program, amines drawn as free bases though some values may be those of a salt)

Row | Structure (SMILES) | melting point [°C]
1 | Cc1noc(NS(=O)(=O)c2ccccc2-c2ccc(-c3ncco3)cc2COCC(C)C)c1C | 86 to 98
2 | CN(C)C=C(C#N)C(=O)Nc1ccc(F)cc1Cl | 138 to 139
3 | CCCc1nc2c(N)nc3ccccc3c2n1CC(C)(C)CC(C)=O | 178 to 180
4 | CC(C)(O)c1ccc(C(Cc2ccc(F)cc2)C(=O)Nc2nc3ccccc3o2)cc1 (stereo unspecified) | 87 to 90
5 | CC1(C)CCCC2(C)C1CCC(C)(O)C2CCO (stereo unspecified) | 130 to 132
6 | O=c1n(CCCF)nnn1-c1cc(Oc2ccc(O)cc2)c(Cl)cc1F | 157 to 159
7 | COC(=O)c1cc(Cl)c(Cl)c(Cl)c1 | 111 to 112
8 | CC(C)(C)OC(=O)N1CC(NC(=O)CNC(=NC(=O)OCc2ccc([N+](=O)[O-])cc2)NC(=O)OCc2ccc([N+](=O)[O-])cc2)C1 | 99 to 101
9 | Oc1ccc(C(O)CN2CCN(C(c3ccccc3)c3ccccc3)CC2)cc1 (stereo unspecified) | 154
10 | N#Cc1cc(/C=C/C(c2cc(Cl)c(Cl)c(Cl)c2)C(F)(F)F)ccc1-n1cnc(NC(=O)C2CC2)n1 (stereo unspecified) | 109 to 112
11 | CCCNC(=O)C(Cc1ccc2c(c1)c(Cc1ccc(C(=O)O)cc1OC)cn2CCC)C(C)C (stereo unspecified) | 160 to 162
12 | Cn1ncc(C=O)c1-c1cccnc1 | 118 to 119
13 | Cc1ccc2c(NCc3ccc(NC(=O)c4ccc(F)cc4)cc3)nc(NCCc3ccccn3)nc2c1 | 112 to 115
14 | FC(F)(F)c1ccc(Nc2nc3ccccc3o2)cc1 | 180 to 182
15 | C#CCn1c(Br)c(Br)c(Br)c1C#N | 95 to 105
16 | NC(=O)CCCC1(c2ccccc2)CC(O)=C(SCc2ccccc2)C(=O)O1 (stereo unspecified) | 47.5 to 53
17 | CN(C)C=NC(=O)c1nn(-c2ccccc2)c(=O)cc1Oc1ccccc1 | 175 to 176
18 | O=C1NCCc2c(-c3cccc(C(F)(F)F)c3)[nH]c3cccc1c23 | 212 to 214
19 | CCC(CC)(CO)Nc1nc(-c2ccc(C#N)cc2)cs1 | 118 to 120
20 | O=C(O)c1ccc(NCc2cc(Cl)c(Cl)s2)cc1 | 225 to 227
21 | Cc1cc(=O)c2cc(Oc3ccccc3)c(NS(C)(=O)=O)cc2o1 | 186 to 187
22 | CCCOC(=O)C(=O)Nc1ccccn1 | 56 to 59
23 | CCOC(=O)c1cn(CC)c2nc3cc(Cl)c(F)cc3cc2c1=O | 300 to 301
24 | COc1ccc2c(c1)C(CCNC(C)=O)CC2 (stereo unspecified) | 73 to 74
25 | O=C1NCNCC1(c1ccccc1)c1ccccn1 (stereo unspecified) | 201 to 203
26 | COC(=O)C1CC=C(c2c(-c3ccccc3)[nH]c3ccccc23)CC1 (stereo unspecified) | 175 to 177

Row | Structure (SMILES) | melting point [°C]
27 | COCCn1nc2c(N)nc3ccccc3c2c1CCCCNS(C)(=O)=O | 159 to 161
28 | CCC(O)(CC(=O)OC)c1cc2n(c(=O)c1COC)Cc1cc3ccccc3nc1-2 (stereo unspecified) | 163 to 166
29 | COc1ccc(CCN(C)CCCc2ccc(NC(=O)c3cccc4c(=O)c5ccccc5[nH]c34)cc2)cc1OC | 114
30 | Cc1ccc(S(=O)(=O)Nc2cc(C)cc([N+](=O)[O-])c2N)cc1 | 184
31 | CC(=O)c1ccc(NS(C)(=O)=O)c(NC(=O)c2ccc(F)cc2F)c1 | 203 to 204
32 | COCC1CC(c2ccc3ccccc3c2C#N)=NO1 (stereo unspecified) | 110 to 111
33 | COc1nc2nc(C=C3C(=O)N4C(C(=O)O)=CSC34)cn2c2c1CCC2 (stereo unspecified) | > 250
34 | NC(=O)CCCCCCCOc1nc(-c2ccccc2)c(-c2ccccc2)n1-c1ccccc1 | 152 to 154
35 | COC(=O)C(=O)c1cn2c3c(cccc13)CCC2 | 105 to 108
36 | CC(C=CC=C(C)C=CC1C(C)=CC(=O)CC1(C)C)=CC=CC=C(C)C=CC=C(C)C=CC1C(C)=CC(=O)CC1(C)C (stereo unspecified) | 185 to 187
37 | c1ccc2c(c1)OCC(CN1CCC(CNc3nc4cc5c(cc4s3)OCO5)CC1)O2 (stereo unspecified) | 160
38 | CC1=CCC2(C)C(CCC3C4CCC(O)C4(C)CCC32)C1 (stereo unspecified) | 128 to 130
39 | CNc1nc2ccn(Cc3ccc(F)cc3)cc-2n1 | 210
40 | CC(=O)OC(CF)c1ccccc1S(N)(=O)=O (stereo unspecified) | 122 to 124
41 | CON=C(C1=NOCCO1)c1ccccc1COc1ccn(-c2ccc(Cl)cc2)n1 | 56 to 59
42 | COc1ccc2c(c1)CC(C(F)(F)F)N2C(=O)Nc1ccc(Oc2cccnc2)nc1 (stereo unspecified) | 202 to 204
43 | CCOC(=O)CC(=O)c1ccc([N+](=O)[O-])c(C)c1 | 48 to 50
44 | [N-]=[N+]=Cc1ccc([N+](=O)[O-])cc1 | 80 to 82
45 | Cc1cc(C)c2c(n1)N(CCN1CCOCC1)c1ccccc1N(C)C2=O | 133 to 135
46 | O=c1[nH]c2ccc(S(=O)(=O)NCCBr)cc2[nH]c1=O | 261 to 266
47 | CCn1cc(C(=O)O)c(=O)cc1Cl | 155 to 157
48 | Cc1nc(Cn2c(=O)sc3cc(F)c(N4C(=O)C5=C(CCCC5)C4=O)cc32)no1 | 198 to 199
49 | CCCCCCSc1ncnc2c1ncn2C1CC(F)C(CO)O1 (stereo unspecified) | 46 to 49
50 | O=C(CN1CCOCC1)Nc1nc2c(Oc3cc(-c4ccc(C(F)(F)F)cc4)ncn3)cccc2s1 | 178 to 182
51 | CC(C)Cn1c(CNC(=O)OC(C)(C)C)c(-c2cccs2)c2cc(OCC(N)=O)ccc2c1=O | 219 to 221
52 | CC(C)c1cccc(-c2ccc(F)cc2)c1/C=C/COc1ccc(C(=O)C(=O)O)cc1 | 142 to 143

Row | Structure (SMILES) | melting point [°C]
53 | O=C(O)CC1(c2ccccc2)CCCC1C(=O)O (stereo unspecified) | 205 to 208
54 | CC(O)c1ccc2nc(NC(=O)c3ccc(C(C)(C)C)cc3)cn2c1 (stereo unspecified) | 249 to 250
55 | Cc1nc[nH]c1CSCCN=C(NC#N)NCCO | 146 to 147
56 | O=C1NN=C(c2ccccc2)c2c[nH]c3cccc1c23 | 177 to 179
57 | OC(c1ccccc1)C1CCN(CCc2ccccc2)CC1 (stereo unspecified) | 125 to 128
58 | c1cc(N2CCCC2)ccc1CC12CC3CC(CC(C3)C1)C2 | 147 to 148
59 | CCCN(CCN1CCN(C(=O)c2cc3ccccc3[nH]2)CC1)C1CCc2c(O)cccc2C1 (stereo unspecified) | 169 to 170
60 | CN(CCNc1ccc2ncc(Br)n2n1)C(=O)OC(C)(C)C | 128 to 129
61 | OCCNc1cc(Nc2ccc(Oc3ccccc3)cc2)ncn1 | 154 to 156
62 | Cc1ccccc1-c1cc(N2CCOCC2)ncc1C(N)=O | 144 to 145
63 | CCN1C(=O)C(C)(C)C(=O)N(C)c2cc(CN(CCn3ccc4oc(C)cc4c3=O)Cc3cc(C)n(C)n3)ccc21 | 138 to 139
64 | COc1cc(OC)c(C(C)=O)c(O)c1CC=C(C)C | 110 to 111
65 | O=C(c1ccc(-c2ccccc2)cc1)c1cccnc1 | 112 to 115
66 | Cn1cc(-c2ccccc2)c(=O)c(-c2cccc(S(C)=O)c2)c1 (stereo unspecified) | 161 to 164
67 | CC(C)N(CCn1cc(C(=O)NCc2ccc(Cl)cc2)c(=O)c2cc(C#CCO)ccc21)C(C)C | 188 to 191
68 | CC(C)=CCOc1ccc(C(=O)C=Cc2ccco2)c(O)c1 | 75 to 77
69 | CC1=C(C(=O)OCCC#N)C(c2ccccc2Cl)C(c2nnco2)=C(C)N1 (stereo unspecified) | 180 to 182
70 | Nc1ncnc2c1c(-c1ccc(Oc3ccccc3O)cc1)cn2C1CCCC1 | 107 to 109
71 | Nc1ncnc2c1c(-c1ccc(Oc3ccccc3C=O)cc1)cn2C1CCOC1 (stereo unspecified) | 185 to 187
72 | COc1ccc(Cl)cc1NC(=O)[C@H]1[C@H](c2ccc(S(N)(=O)=O)cc2)C12CCCC2 (relative stereo) | 210 to 212
73 | CCN(CC)Cc1cc(C(N)=O)cc(Br)c1N | 140 to 142
74 | CNC(=N[N+](=O)[O-])SC | 150 to 152
75 | O=C(c1ccccc1)c1cc2c3ccccc3[nH]c(=O)n2n1 | 308 to 311
76 | O=C1CNC(=O)N1c1cc(Cl)cc(Cl)c1 | 199
77 | Cc1cnc(C(=O)c2[nH]c3ccc(Cl)cc3c2CC(=O)O)s1 | 231 to 233
78 | COc1ccc(CNc2cc(C(c3cc(F)ccc3F)S(=O)(=O)c3ccc(Cl)cc3)c(Cl)cn2)cc1OC (stereo unspecified) | 204 to 206

Row | Structure (SMILES) | melting point [°C]
79 | CC#CC(=O)N[C@H]1CC[C@H](CCN2CCC(c3cccc4c3CCO4)CC2)CC1 | 195
80 | O=C1CCC(C(=O)OCc2ccccn2)N1 (stereo unspecified) | 130 to 131
81 | COc1cc(-c2nc3ccccc3n2Cc2ccccc2Cl)cc(OC)c1OC | 174
82 | CCCCNS(=O)(=O)c1cc(C(=O)O)cc(N)c1Sc1ccc(NC(C)=O)cc1 | 228 to 229
83 | CCC(CC)Nc1cc(C)nc(Oc2c(C)cc(C)cc2C)c1N | 105 to 107
84 | COC(=O)C(O)C(CC(C)C)NCc1ccccc1 (stereo unspecified) | 89 to 90
85 | COCc1nc2c(NCc3c(C)cccc3C)cc(Br)cc2n1C | 143 to 145
86 | COC1CN=C(N2CCN(c3ccc(O)cc3)CC2)S1 (stereo unspecified) | 166
87 | C=Cc1ccc(-n2cnc([N+](=O)[O-])n2)c(C#N)c1 | 103 to 105
88 | C#Cc1cnc(C)c(O)c1CO | 170 to 171
89 | CCNC(=O)CNc1c(C#N)cnn1-c1ccc(C(F)(F)F)cc1Cl | 144 to 145
90 | COc1ccc(-c2nc(Sc3cccc(OC)c3)n(C3CCCCO3)c2-c2ccc(OC)cc2)cc1 (stereo unspecified) | 123
91 | COC(=O)C#CC(=O)c1ccc(C)cc1 | 44 to 47
92 | CN(CCF)c1ccc2cc(-c3nc4ccccc4s3)c(=O)oc2c1 | 231 to 233
93 | Cn1nnn(-c2c(Cl)ccc(C(=O)O)c2Cl)c1=O | 221 to 225
94 | COC(=O)C=Cc1cccc(NC(=O)c2cccn2C)c1 | 89 to 90
95 | COC1=CC(OC)OC(C)C1=O (stereo unspecified) | 73 to 74.5
96 | CC12CCC(=O)C=C1CCC1C2CCC2(C)C(n3ccnn3)=CCC12 (stereo unspecified) | 118 to 120
97 | COc1ccc([C@@H]2CCCC[C@H]2C#N)c(OC)c1OC (relative stereo) | 69 to 72
98 | O=C1COc2ccc(C3=Cc4cc(F)ccc4SC3c3ccc(F)cc3)cc2N1 (stereo unspecified) | 191 to 192
99 | CCOC(=O)CCCCC1CC(n2c3ccccc3c3ccccc32)c2ccccc2N1C(=O)c1ccc(OC)cc1 (stereo unspecified) | 167 to 168
100 | O=[N+]([O-])c1cnn(-c2c(Cl)cc(Cl)cc2Cl)c1O | 106 to 115
101 | CC1CCC(c2ccc(Cl)c(Cl)c2)=NN1S(=O)(=O)c1ccc(I)cc1 (stereo unspecified) | 194 to 196
